In ChEMBL document CHEMBL1201862, “PubChem BioAssay data set” (2004):
One block for each compound: values may come before it. Active and inactive are the calls of the source.

Legend:
[1] = biological target: T1, Apoptotic protease-activating factor 1 (Homo sapiens, UniProt O14727); assay: SAR analysis of small molecule Activators of Apaf-1 in a Fluorescent assay.; assay type: functional; conditions: read-out: EC50_Mean;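 also: caspase-3 cleavage of fluorogenic Rh110 DEVD substrate downstream of apoptosome activation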
T1 sequence (O14727 whole entry): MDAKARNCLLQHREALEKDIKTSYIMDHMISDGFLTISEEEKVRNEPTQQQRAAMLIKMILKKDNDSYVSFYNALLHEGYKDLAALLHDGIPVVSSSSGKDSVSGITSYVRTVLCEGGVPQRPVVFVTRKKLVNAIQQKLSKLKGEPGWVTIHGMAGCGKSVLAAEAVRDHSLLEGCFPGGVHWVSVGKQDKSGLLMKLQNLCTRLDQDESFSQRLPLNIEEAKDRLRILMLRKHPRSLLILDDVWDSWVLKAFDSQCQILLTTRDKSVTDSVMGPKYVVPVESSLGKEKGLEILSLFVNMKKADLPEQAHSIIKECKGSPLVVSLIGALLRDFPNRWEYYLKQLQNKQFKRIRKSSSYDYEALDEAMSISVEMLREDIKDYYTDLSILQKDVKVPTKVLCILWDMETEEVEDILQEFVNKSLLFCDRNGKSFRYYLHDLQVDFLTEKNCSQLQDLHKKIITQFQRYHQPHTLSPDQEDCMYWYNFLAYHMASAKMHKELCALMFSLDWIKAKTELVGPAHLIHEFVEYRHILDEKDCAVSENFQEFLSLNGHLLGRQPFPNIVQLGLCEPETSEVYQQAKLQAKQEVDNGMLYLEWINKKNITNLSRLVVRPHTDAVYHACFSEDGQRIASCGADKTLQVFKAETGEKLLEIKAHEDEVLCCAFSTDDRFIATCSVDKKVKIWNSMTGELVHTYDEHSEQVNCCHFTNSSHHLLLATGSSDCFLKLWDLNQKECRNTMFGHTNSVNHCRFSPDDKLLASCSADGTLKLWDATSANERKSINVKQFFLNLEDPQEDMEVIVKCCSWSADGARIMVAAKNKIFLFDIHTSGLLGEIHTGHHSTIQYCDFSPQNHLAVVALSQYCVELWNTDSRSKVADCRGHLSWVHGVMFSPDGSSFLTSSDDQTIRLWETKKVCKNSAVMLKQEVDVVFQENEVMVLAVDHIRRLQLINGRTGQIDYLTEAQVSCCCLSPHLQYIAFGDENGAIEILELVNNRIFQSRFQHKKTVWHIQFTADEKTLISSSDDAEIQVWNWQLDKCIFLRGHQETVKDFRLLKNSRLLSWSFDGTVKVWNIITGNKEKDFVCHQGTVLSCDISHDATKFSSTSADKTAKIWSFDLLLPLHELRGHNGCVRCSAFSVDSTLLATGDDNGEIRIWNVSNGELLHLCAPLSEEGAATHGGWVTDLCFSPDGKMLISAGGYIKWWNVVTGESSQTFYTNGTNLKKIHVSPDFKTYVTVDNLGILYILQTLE

[2] = biological target: T2, ATP-dependent translocase ABCB1 (Homo sapiens, UniProt P08183); assay: P-gp JC-1 efflux blockade concentration-response – Jurkat-DNR cells, flow cytometry, set 2, dose response (AID 504569); assay type: functional; conditions: read-out: EC50_MICROM_;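 also: potency of pump inhibitors that raise cellular JC-1 green fluorescence up to the nicardipine level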
[3] = biological target: T2, ATP-dependent translocase ABCB1; assay: inhibition of BCRP-mediated JC-1 efflux – Ig-MXP3 cells, flow cytometry, set 2, dose response (AID 504566); assay type: functional; conditions: read-out: EC50_MICROM_;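 also: flow cytometry median green fluorescence of retained JC-1 dye; potency of efflux pump inhibition measured as rising substrate retention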
[4] = biological target: ADP-ribosylation factor GTPase-activating protein 1 (Rattus norvegicus, UniProt Q62848); assay: Fluorescence polarization-based biochemical high throughput dose response screening assay to identify inhibitors of ADP-ribosylation factor GTPase activating protein 1 (ARFGAP1).; assay type: functional
[5] = biological target: T3, High affinity choline transporter 1 (Homo sapiens, UniProt Q9GZV3); assay: human choline transporter blockers, potency – cell-based, 10-point CRC, membrane potential dye, dose response (AID 588401); assay type: functional;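 also: membrane potential dye fluorescence of choline-evoked depolarization via CHT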
T3 sequence (Q9GZV3 whole entry): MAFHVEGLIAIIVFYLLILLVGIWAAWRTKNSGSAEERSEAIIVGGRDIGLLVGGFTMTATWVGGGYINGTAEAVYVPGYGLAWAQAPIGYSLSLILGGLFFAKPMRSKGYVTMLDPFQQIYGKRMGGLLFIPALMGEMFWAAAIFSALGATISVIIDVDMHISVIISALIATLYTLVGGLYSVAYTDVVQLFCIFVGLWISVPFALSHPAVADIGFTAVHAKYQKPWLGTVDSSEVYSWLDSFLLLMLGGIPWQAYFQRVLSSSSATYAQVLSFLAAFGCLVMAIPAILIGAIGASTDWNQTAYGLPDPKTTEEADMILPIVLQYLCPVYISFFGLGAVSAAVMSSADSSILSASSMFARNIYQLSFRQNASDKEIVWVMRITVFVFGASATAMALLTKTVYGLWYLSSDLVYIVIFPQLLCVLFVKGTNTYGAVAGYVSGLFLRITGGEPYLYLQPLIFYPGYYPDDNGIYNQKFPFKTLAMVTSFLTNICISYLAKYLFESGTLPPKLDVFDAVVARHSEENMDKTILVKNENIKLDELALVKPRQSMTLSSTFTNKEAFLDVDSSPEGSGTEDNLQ

[6] = biological target: T3, High affinity choline transporter 1; assay: human choline transporter radiolabel uptake blockers – cell-based, 3H-choline uptake, CHT LV-AA trafficking mutant, CRC, dose response (AID 602208); assay type: functional
[7] = biological target: T3, High affinity choline transporter 1; assay: human choline transporter blockers, potency – cell-based, 5-point CRC, membrane potential dye, dose response (AID 504840); assay type: functional
[8] = reduction of Shn3 3'UTR-driven luciferase in osteoblasts – cell-based, Clone20 osteoblasts, firefly luciferase, cherry-picked, dose response (AID 624132); assay type: functional;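 also: firefly luciferase luminescence from reporter carrying the Shn3 3'UTR in osteoblasts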
[9] = loss of viability in HepG2 cells – cell-based, CellTiter-Glo, cherry-picked, cytotoxicity control for Shn3 inhibitor project, dose response (AID 624134); assay type: functional
Beta Lactamase = Beta Lactamase (Pseudomonas aeruginosa, UniProt Q932Y6); assay: BLA reporter interference, concentration series – BLA reporter cells, FRET fluorescence, artefact control for TLR9-MyD88 binding inhibitor project, dose response (AID 588341); assay type: cell-based;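 also: cell based assay in CHO-K1 cells stably expressing beta-lactamase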
[10] = non-specific 3'UTR reporter inhibition in Clone20-Shn3RL – cell-based, Renilla luciferase, cherry-picked, counter-screen for Shn3 inhibitor project, dose response (AID 624133); assay type: functional
CHO = CHO cell viability loss, potency – luminescence, cytotoxicity control for TLR9-MyD88 binding inhibitor project, dose response (AID 588339); assay type: functional, cell-based, hamster; conditions: Cricetulus griseus;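 also: CHO cells stably coexpressing TLR9 and MyD88 fusions from primary screen; compound exposure lasted 48 hours before viability readout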

T2 sequence (P08183 whole entry): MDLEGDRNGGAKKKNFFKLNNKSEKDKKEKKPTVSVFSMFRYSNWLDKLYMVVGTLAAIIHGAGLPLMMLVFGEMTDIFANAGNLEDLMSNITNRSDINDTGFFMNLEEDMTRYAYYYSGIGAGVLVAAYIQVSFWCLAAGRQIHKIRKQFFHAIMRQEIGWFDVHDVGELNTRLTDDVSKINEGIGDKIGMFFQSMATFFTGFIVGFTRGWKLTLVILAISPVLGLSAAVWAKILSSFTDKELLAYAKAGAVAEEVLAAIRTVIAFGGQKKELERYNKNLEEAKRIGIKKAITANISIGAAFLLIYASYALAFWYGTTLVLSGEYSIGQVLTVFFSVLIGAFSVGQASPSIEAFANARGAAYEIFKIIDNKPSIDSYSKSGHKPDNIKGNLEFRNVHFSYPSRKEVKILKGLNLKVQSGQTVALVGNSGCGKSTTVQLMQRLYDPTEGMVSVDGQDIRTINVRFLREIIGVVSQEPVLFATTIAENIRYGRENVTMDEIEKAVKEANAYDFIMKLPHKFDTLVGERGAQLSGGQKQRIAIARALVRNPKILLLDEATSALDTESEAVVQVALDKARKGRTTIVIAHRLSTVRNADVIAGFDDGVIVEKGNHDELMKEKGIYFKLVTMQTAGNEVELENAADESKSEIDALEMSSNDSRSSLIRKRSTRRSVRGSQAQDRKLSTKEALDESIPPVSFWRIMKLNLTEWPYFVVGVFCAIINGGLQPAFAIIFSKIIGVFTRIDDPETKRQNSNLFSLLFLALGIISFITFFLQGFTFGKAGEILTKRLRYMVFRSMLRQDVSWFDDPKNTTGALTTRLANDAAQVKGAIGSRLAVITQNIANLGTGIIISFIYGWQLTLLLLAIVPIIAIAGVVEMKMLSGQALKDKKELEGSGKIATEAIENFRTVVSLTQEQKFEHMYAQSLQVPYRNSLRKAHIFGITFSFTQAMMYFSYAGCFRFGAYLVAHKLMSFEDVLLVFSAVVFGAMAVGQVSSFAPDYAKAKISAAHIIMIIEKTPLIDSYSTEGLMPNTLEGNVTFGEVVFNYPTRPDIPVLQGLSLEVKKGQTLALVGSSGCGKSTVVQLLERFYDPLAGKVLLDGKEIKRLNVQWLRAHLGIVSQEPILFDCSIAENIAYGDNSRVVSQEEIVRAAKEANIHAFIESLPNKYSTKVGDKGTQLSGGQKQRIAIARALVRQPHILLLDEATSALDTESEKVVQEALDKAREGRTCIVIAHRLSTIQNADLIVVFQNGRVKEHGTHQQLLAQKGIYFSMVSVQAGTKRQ
ADP-ribosylation factor GTPase-activating protein 1, sequence (Q62848 whole entry): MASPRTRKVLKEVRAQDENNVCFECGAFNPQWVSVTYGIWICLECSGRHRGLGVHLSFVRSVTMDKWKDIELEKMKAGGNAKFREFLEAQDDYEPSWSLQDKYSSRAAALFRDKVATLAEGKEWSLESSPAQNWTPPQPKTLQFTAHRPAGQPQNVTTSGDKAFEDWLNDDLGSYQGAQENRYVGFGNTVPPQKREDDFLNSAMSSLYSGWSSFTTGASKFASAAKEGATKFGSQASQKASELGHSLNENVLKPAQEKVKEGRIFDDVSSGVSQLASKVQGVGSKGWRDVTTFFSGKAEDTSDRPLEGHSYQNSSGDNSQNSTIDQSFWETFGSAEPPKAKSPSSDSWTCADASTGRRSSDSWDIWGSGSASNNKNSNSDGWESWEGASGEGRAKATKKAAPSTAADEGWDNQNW
Beta Lactamase, sequence (Q932Y6 whole entry): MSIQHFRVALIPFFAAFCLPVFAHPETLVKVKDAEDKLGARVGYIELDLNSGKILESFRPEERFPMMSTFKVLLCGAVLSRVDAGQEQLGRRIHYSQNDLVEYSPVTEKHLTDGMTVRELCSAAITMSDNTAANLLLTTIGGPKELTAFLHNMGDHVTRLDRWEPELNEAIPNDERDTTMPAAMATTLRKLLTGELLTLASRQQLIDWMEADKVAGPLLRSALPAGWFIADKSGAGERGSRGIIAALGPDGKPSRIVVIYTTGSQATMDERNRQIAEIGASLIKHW

EC50 [1]: > 100 µM (inactive)
Compound: CCC(=O)N1CCc2cc(Br)c(S(=O)(=O)CCC(=O)Nc3cc(Cl)ccc3OC)cc21

EC50 [2]: 2.22 µM (active)
EC50 [3]: 2.6 µM (active)
Compound: COc1cccc(C(=O)N2CCN(c3cc(-c4ccccc4)nc4cc(-c5cccc(Cl)c5)nn34)CC2)c1

IC50 [4]: 49 µM (inactive)
Compound: CCCOc1ccc(/C=N/NC(=O)c2ccc(Cn3cc([N+](=O)[O-])cn3)o2)cc1

Compound: O=C(Nc1ccc(S(=O)(=O)Nc2cnc3ccccc3n2)cc1)c1ccc(Cl)cc1Cl
IC50 [5]: 3.25 µM (active)
IC50 [6]: 2.82 µM (active)
IC50 [7]: 9.55 µM (active)

Compound: O=c1oc2ccccc2c(Cl)c1CN1CCCCC1
IC50 [5]: 6.69 µM (active)
AC50 [8]: 4.99 µM (active)
AC50 [9]: > 70 µM (inactive)
IC50 (Beta Lactamase): 6.02 µM (active)
AC50 [10]: 7.15 µM (active)
IC50 (CHO): 1.22 µM (active)
IC50 [7]: 10 µM (active)
